# Experimental data published in patent publication US11872262B2, “Means and methods for treating bacterial infections” (VIB VZW, priority 2017, dated 2024).
# Read-outs that look alike come from different tables or passages of the source. Residues, ends and D or L forms follow the SMILES beside them.
# What was measured:
# [1] = ELISA on immobilised colpeptin1 with serum of treated animals; type: in vivo; conditions: mice treated for 18 days with 30 mg/kg
# Experimental: FIG. 2: Cross seeding and in vivo activity. (A) Fluorescence microscopy image of HeLa cells mixed with E. coli O157 and treated with FITC-labelled Colpeptin1 (green channel). Blue channel is DAPI, red is CellMask Deep Red plasma membrane dye. (D) Inhibitor effect of Colpeptin1 on bacterial growth in the presence of human blood serum (average and s.d. of 3 replicates). (E) ELISA on immobilised colpeptin1 using blood serum of animals treated for 18 days with 30 mg/kg colpeptin1 (3 replicates from 3 mice). […] See materials and methods for details.
# Given these positive results, we then established the tolerance of the Swiss mice to the peptide by performing a dose escalation experiment. […] The parameters observed included body weight, food and water consumption, home cage activity and locomotion. […] Based on these observations, we tested the antibacterial efficacy of the colpeptin1 in a mouse bladder infection model. In this model, an inoculum of 50 μL of a 10^8 CFU/mL suspension of E. coli O157:H7 was delivered via the urethra to the bladder of healthy Swiss mice. 1 h post-infection, we administered a single injection of colpeptin1 at 10 mg/kg, either via the urethra (n=15) or intraperitoneally (n=15). 24 h after treatment, the animals were sacrificed and the bacterial titer in kidney, colon, bladder and ureter was determined by plating the macerated tissue (FIG. 2F-l).
# [2] = system: E. coli K-12 BW25113 strain (KEIO collection); type: cell-based, Escherichia coli
# Experimental: (§1) The MICs of active peptides were determined via the Broth microdilution assay according to the EUCAST guideline, which were performed in 96-well polystyrene flat-bottom microtiter plates (BD Biosciences). Briefly, a single colony was inoculated into 5 mL LB medium and grown to the end-exponential growth phase in a shaking incubator at 37° C. Cultures were subsequently diluted to an OD600 of 0.002 ([…]) in fresh LB medium. 100 μL of LB medium with different concentration of peptides ranging from 100 μg/mL to 1 μg/mL were serially diluted to the sterile 96-well plate (at least 3 wells in each plate). Afterward, 100 μL of the diluted bacteria were pipetted into 96-well plates containing different concentration of peptides. In each plate, the grown bacteria with maximum concentration of carrier and medium were considered as positive and negative controls, respectively. Thereafter, 96-well plates was statically incubated overnight at 37° C. to allow bacterial growth. A multipurpose UV/VIS plate reader at OD590 nm, 1 s shaking measured the absorbance of the growth bacteria using a Perkin Elmer spectrophotometer (1420 Multilabel Counter Victor 3).
# E. coli O157 = type: cell-based, Escherichia coli; conditions: E. coli 0157 (Table 2)
# Experimental: as §1
# Acinetobacter baumanii = type: cell-based
# Experimental: (§2) Gram negative bacterial strains were cultivated in Luria-Bertani (LB) broth (Difco) and gram positive bacteria strains were grown in a rich medium, brain heart infusion (BHI) broth (Difco, Sparks, MD) at 37° C. Whenever required, growth media were supplemented with appropriate antibiotic to the medium or plates. Escherichia coli DH5α was used for cloning and plasmid amplification. […] Bacterial CFU counting was done on blood agar plates (BD Biosciences). Species identification and antibiograms for all clinical isolates were performed using MALDI-TOF and VITEK® 2 automated system (bioMérieux).
# as §1
# [3] = system: Acinetobacter radioresistens; type: cell-based
# Experimental: as §2, §1
# [4] = system: Staphylococcus aureus MRSA326; type: cell-based
# Experimental: as §2, §1
# [5] = system: Klebsiella pneumoniae (ATCC 1388); type: cell-based
# Experimental: as §2, §1
# Pseudomonas aeruginosa = type: cell-based
# Experimental: as §2, §1
# E. coli O157:H7 = type: cell-based, Escherichia coli; conditions: screening-stage peptides tested at 1, 6, 12 and 25 μg/mL
# Outline: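 Tandem-repeat aggregation-prone-region peptides from DMSO stocks were tested for growth inhibition of E. coli O157:H7 at 1, 6, 12 and 25 μg/mL.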
smiles,measurement,setting,value
CC(C)C[C@H](NC(=O)CNC(=O)[C@H](CCCNC(=N)N)NC(=O)[C@@H]1CCCN1C(=O)[C@H](CCCNC(=N)N)NC(=O)[C@H](CCCNC(=N)N)NC(=O)[C@@H](NC(=O)[C@H](CC(C)C)NC(=O)[C@H](C)NC(=O)[C@H](CC(C)C)NC(=O)CNC(=O)[C@H](CC(C)C)NC(=O)CNC(=O)[C@@H](N)CCCNC(=N)N)C(C)C)C(=O)NCC(=O)N[C@@H](CC(C)C)C(=O)N[C@@H](C)C(=O)N[C@@H](CC(C)C)C(=O)N[C@H](C(=O)N[C@@H](CCCNC(=N)N)C(=O)N[C@@H](CCCNC(=N)N)C(=O)O)C(C)C [Peptide P2] (H-RGLGLALVRRPRGLGLALVRR-OH),antibody response towards the peptide (ELISA on serum),[1],no specific antibody response
same,MIC,[2]; KEIO WT,12 µg/mL
same,MIC,[2]; Δ Clp A,12 µg/mL
same,MIC,[2]; Δ Clp B,12 µg/mL
same,MIC,[2]; Δ Clp P,12 µg/mL
same,MIC,[2]; Δ Clp S,12 µg/mL
same,MIC,[2]; Δ Clp X,12 µg/mL
same,MIC,[2]; Δ Dan J,12 µg/mL
same,MIC,[2]; Δ Dan K,6 µg/mL
same,MIC,[2]; Δ gro L,12 µg/mL
same,MIC,[2]; Δ htp G,12 µg/mL
same,MIC,E. coli O157,6 µg/mL
same,MIC,Acinetobacter baumanii,6 µg/mL
same,MIC,[3],5 µg/mL
same,MIC,[4],200 µg/mL
same,MIC,[5],50 µg/mL
same,MIC,Pseudomonas aeruginosa,200 µg/mL
same,E. coli O157 (apparent MIC in screen),E. coli O157:H7,6 µg/mL
